According to patent US5747500A, “Antiviral 2, 4-pyrimidinedione derivatives” (priority 1993, dated 1998):
≈ marks a conversion by molar mass, not a printed value.

Tests used:
[1] = cytotoxicity: viability of mock-infected MT-4 host cells (MTT method); format: cell-based; details: human, mt-4 cells, read-out: CD50: Cytotoxic concentration that causes death of cells by 50%
Method: The cytotoxicity of the compounds of the present invention was assessed in parallel with their antiviral activity. It was based on the viability of mock-infected host cells as determined by the MTT methods (se J. Virol. Methods, 20, 309 (1988)).
CD50 : Cytotoxic concentration that causes death of cells by 50%

HIV = assay: inhibition of HIV-induced cytopathic effect in MT-4 cells (MTT method); format: cell-based; details: for EC50: Human immunodeficiency virus 1, MT4, HIV-infected MT-4 cells, 1000 CCID50, 4 or 5 day incubation at 37° C., MTT method, read-out: ED50: Effective concentration for the inhibition of the proliferation of HIV by 50%; for S.I.: Selectivity index (CD50/ED50): ratio CD50/ED50, MT-4 cells
Method: The anti-HIV assays were based on the inhibition of the virus-induced cytopathic effect in MT-4 cells as described in J. Virol. Methods, 16, 171 (1987). Briefly, MT-4 cells were suspended in culture medium at 2.5×10^5 cells/ml and infected with 1000 CCID50 (50% cell culture infective dose) of HIV. Immediately, after virus infection, 100 μl of the cell suspension was brought into each well of a flat-bottomedmicrotiter tray containing various concentrations of the test compounds. After a 4 or 5 day incubation at 37° C., the number of viable cells was determined by the 3-(4,5-dimethylthiazol-2-yl)-2,5-diphenyltetrazoliumbromide (MTT) method, as disclosed in J. Virol. Methods, 20, 309 (1988).
ED50 : Effective concentration for the inhibition of the
proliferation of HIV by 50%

SMILES	CC50 [1] [µg/mL]	EC50 (HIV) [µg/mL]	S.I.: Selectivity index (CD50/ED50) (HIV)
C#CCn1c(Sc2ccccc2)c(CC)c(=O)[nH]c1=O [Example 1, 1-propargyl-5-ethyl-6-phenylthio-2,4-pyrimidinedione]	14.8 (≈ 51.9 µM)	< 0.32	> 46
CC/C=C/Cn1c(Sc2cc(C)cc(C)c2)c(CC)c(=O)[nH]c1=O [Example 2, 1-(trans-2-pentenyl)-5-ethyl-6-(3,5-dimethylphenylthio)-2,4-pyrimidinedione]	8.73 (≈ 25.3 µM)	< 0.32	> 29
Cc1cc(C)cc(Sc2c(C(C)C)c(=O)[nH]c(=O)n2CC#Cc2ccccc2)c1 [Example 3, 1-(3-phenyl-2-propynyl)-5-isopropyl-6-(3,5-dimethylphenylthio)-2,4-pyrimidinedione]	7.94 (≈ 19.6 µM)	< 0.009	> 882
C=CCn1c(Cc2ccccc2)c(CC)c(=O)[nH]c1=O [Example 4, 1-allyl-5-ethyl-6-benzyl-2,4-pyrimidinedione]	52.5 (≈ 194 µM)	< 0.32	> 164
C/C=C/Cn1c(Cc2cc(C)cc(C)c2)c(CC)c(=O)[nH]c1=O [Example 5, 1-(trans-2-butenyl)-5-ethyl-6-(3,5-dimethylbenzyl)-2,4-pyrimidinedione]	48.6 (≈ 156 µM)	< 0.032	> 1,518
Cc1cc(C)cc(Cc2c(C(C)C)c(=O)[nH]c(=O)n2C/C=C/c2ccccc2)c1 [Example 6, 1-(trans-cinnamyl)-5-isopropyl-6-(3,5-dimethylbenzyl)-2,4-pyrimidinedione]	8.03 (≈ 20.7 µM)	< 0.009	> 892
CCc1c(C(=O)c2cc(C)cc(C)c2)n(CC=C(C)C)c(=O)[nH]c1=O [Example 7, 1-(3-methyl-2-butenyl)-5-ethyl-6-(3,5-dimethylbenzoyl)-2,4-pyrimidinedione]	27.8 (≈ 81.8 µM)	< 0.33	> 84
CCc1c(C(=O)c2cc(C)cc(C)c2)n(CC=CC(=O)OC)c(=O)[nH]c1=O [Example 8, 1-(methoxycarbonylallyl)-5-ethyl-6-(3,5-dimethylbenzoyl)-2,4-pyrimidinedione]	27.2 (≈ 73.5 µM)	< 0.19	> 143
Cc1cc(C)cc(C(=O)c2c(C(C)C)c(=O)[nH]c(=O)n2C/C=C/CCl)c1 [Example 9, 1-(4-chloro-trans-2-butenyl)-5-isopropyl-6-(3,5-dimethylbenzoyl)-2,4-pyrimidinedione]	6.38 (≈ 17 µM)	< 0.009	> 708
C/C=C/Cn1c(Oc2cc(C)cc(C)c2)c(CC)c(=O)[nH]c1=O [Example 10, 1-(trans-2-butenyl)-5-ethyl-6-(3,5-dimethylphenoxy)-2,4-pyrimidinedione]	19.4 (≈ 61.7 µM)	< 0.01	> 1,939
CC#CCn1c(Oc2cc(C)cc(C)c2)c(C(C)C)c(=O)[nH]c1=O [Example 11, 1-(2-butynyl)-5-isopropyl-6-(3,5-dimethylphenoxy)-2,4-pyrimidinedione]	39.9 (≈ 122 µM)	< 0.32	> 124
C=CCn1c(Sc2ccccc2)c(CC)c(=O)[nH]c1=O [Example 12, 1-allyl-5-ethyl-6-phenylthio-2,4-pyrimidinedione]	17.5 (≈ 60.6 µM)	< 0.32	> 54
C/C=C/Cn1c(Sc2ccccc2)c(CC)c(=O)[nH]c1=O [Example 13]	16.2 (≈ 53.5 µM)	< 0.32	> 50
CCc1c(Sc2ccccc2)n(C/C=C/c2ccccc2)c(=O)[nH]c1=O [Example 14]	5.77 (≈ 15.8 µM)	< 0.032	> 180
CCc1c(Sc2ccccc2)n(CC=C(C)C)c(=O)[nH]c1=O [Example 15, 1-(3-methyl-2-butenyl)-5-ethyl-6-phenylthio-2,4-pyrimidinedione]	11.3 (≈ 35.6 µM)	0.36 (≈ 1.14 µM)	31
CCOC/C=C\Cn1c(Sc2ccccc2)c(CC)c(=O)[nH]c1=O [Example 16]	19 (≈ 54.9 µM)	2.78 (≈ 8.02 µM)	6.85
CCc1c(Sc2ccccc2)n(C/C=C\COCc2ccccc2)c(=O)[nH]c1=O [Example 17]	5.79 (≈ 14.2 µM)	3.68 (≈ 9.01 µM)	1.57
C=CCn1c(Sc2cc(C)cc(C)c2)c(CC)c(=O)[nH]c1=O [Example 18, 1-allyl-5-ethyl-6-(3,5-dimethylphenylthio)-2,4-pyrimidinedione]	3.9 (≈ 12.3 µM)	< 0.032	> 121
C/C=C/Cn1c(Sc2cc(C)cc(C)c2)c(CC)c(=O)[nH]c1=O [Example 19]	8.74 (≈ 26.4 µM)		> 971
CCc1c(Sc2cc(C)cc(C)c2)n(C/C=C/c2ccccc2)c(=O)[nH]c1=O [Example 20]	5.21 (≈ 13.3 µM)	< 0.009	> 578

SMILES	CC50 [1] [µg/mL]	EC50 (HIV) [µg/mL]	S.I.: Selectivity index (CD50/ED50) (HIV)
CCc1c(Sc2cc(C)cc(C)c2)n(C/C=C/C(=O)OC)c(=O)[nH]c1=O [Example 21]	41.4 (≈ 111 µM)	< 0.32	> 129
CCc1c(Sc2cc(C)cc(C)c2)n(C/C=C/CCl)c(=O)[nH]c1=O [Example 22]	33.8 (≈ 92.6 µM)	< 0.36	> 93
CCc1c(Sc2cc(C)cc(C)c2)n(C/C=C\CCl)c(=O)[nH]c1=O [Example 23]	38.2 (≈ 105 µM)	< 0.93	> 41
C#CCn1c(Sc2cc(C)cc(C)c2)c(CC)c(=O)[nH]c1=O [Example 24, 1-propargyl-5-ethyl-6-(3,5-dimethylphenylthio)-2,4-pyrimidinedione]	1.81 (≈ 5.76 µM)	< 0.032	> 56
CC#CCn1c(Sc2cc(C)cc(C)c2)c(CC)c(=O)[nH]c1=O [Example 25, 1-(2-butynyl)-5-ethyl-6-(3,5-dimethylphenylthio)-2,4-pyrimidinedione]	62.5 (≈ 190 µM)	< 0.69	> 90
CCc1c(Sc2cc(C)cc(C)c2)n(CC#Cc2ccccc2)c(=O)[nH]c1=O [Example 26, 1-(3-phenyl-2-propynyl)-5-ethyl-6-(3,5-dimethylphenylthio)-2,4-pyrimidinedione]	4.93 (≈ 12.6 µM)	< 0.009	> 547
C/C=C/Cn1c(Sc2cc(C)cc(C)c2)c(C(C)C)c(=O)[nH]c1=O [Example 27]	6.66 (≈ 19.3 µM)	< 0.009	> 740
CC/C=C/Cn1c(Sc2cc(C)cc(C)c2)c(C(C)C)c(=O)[nH]c1=O [Example 28]	5.79 (≈ 16.2 µM)	< 0.009	> 643
Cc1cc(C)cc(Sc2c(C(C)C)c(=O)[nH]c(=O)n2C/C=C/c2ccccc2)c1 [Example 29]	37.1 (≈ 91.4 µM)	< 0.023	> 1,615
COC(=O)/C=C/Cn1c(Sc2cc(C)cc(C)c2)c(C(C)C)c(=O)[nH]c1=O [Example 30]	17.7 (≈ 45.6 µM)	< 0.009	> 1,966
CC#CCn1c(Sc2cc(C)cc(C)c2)c(C(C)C)c(=O)[nH]c1=O [Example 31, 1-(2-butynyl)-5-isopropyl-6-(3,5-dimethylphenylthio)-2,4-pyrimidinedione]	16.9 (≈ 49.5 µM)	< 0.32	> 52
C/C=C/Cn1c(Cc2ccccc2)c(CC)c(=O)[nH]c1=O [Example 32]	32.4 (≈ 114 µM)	< 0.32	> 101
CCc1c(Cc2ccccc2)n(C/C=C/c2ccccc2)c(=O)[nH]c1=O [Example 33]	8.58 (≈ 24.8 µM)	< 0.032	> 268
C=CCn1c(Cc2cc(C)cc(C)c2)c(CC)c(=O)[nH]c1=O [Example 34, 1-allyl-5-ethyl-6-(3,5-dimethylbenzyl)-2,4-pyrimidinedione]	12.3 (≈ 41.3 µM)	< 0.32	> 38
CCc1c(Cc2cc(C)cc(C)c2)n(C/C=C/c2ccccc2)c(=O)[nH]c1=O [Example 35]	5.78 (≈ 15.4 µM)	< 0.009	642
CCc1c(Cc2cc(C)cc(C)c2)n(CC=C(C)C)c(=O)[nH]c1=O [Example 36, 1-(3-methyl-2-butenyl)-5-ethyl-6-(3,5-dimethylbenzyl)-2,4-pyrimidinedione]	22.1 (≈ 67.6 µM)	< 0.33	66
CCc1c(Cc2cc(C)cc(C)c2)n(C/C=C/C(=O)OC)c(=O)[nH]c1=O [Example 37]	12.5 (≈ 35 µM)	1.64 (≈ 4.6 µM)	7.6
C#CCn1c(Cc2cc(C)cc(C)c2)c(CC)c(=O)[nH]c1=O [Example 38, 1-propargyl-5-ethyl-6-(3,5-dimethylbenzyl)-2,4-pyrimidinedione]	24.1 (≈ 81.5 µM)	< 0.32	> 75
CC#CCn1c(Cc2cc(C)cc(C)c2)c(CC)c(=O)[nH]c1=O [Example 39, 1-(2-butynyl)-5-ethyl-6-(3,5-dimethylbenzyl)-2,4-pyrimidinedione]	8.65 (≈ 27.9 µM)	< 0.049	> 176
